Results from PubChem BioAssay (NCI).
In brackets after ≈: the same amount, converted by molar mass.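 A five-concentration, 48-hour dose response in 96-well plates underlies each endpoint, interpolated linearly between surrounding concentrations. At the GI50, growth is halved. Definition used: TGI = concentration required for complete inhibition of growth.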

What was measured:
Assay in all cases: NCI-60 cell line screen, 48 h
[1] = tested on: A498 renal
[2] = tested on: EKVX NSCLC
[3] = tested on: HCT-116 colon
[4] = tested on: HL-60(TB) leukemia
[5] = tested on: HOP-62 NSCLC
[6] = tested on: HOP-92 NSCLC
[7] = tested on: HS 578T breast
[8] = tested on: IGROV1 ovarian
[9] = tested on: MDA-MB-231 breast
[10] = tested on: NCI-H226 lung
[11] = tested on: RPMI-8226 leukemia
[12] = tested on: RXF 393 renal
[13] = tested on: SN12C renal
[14] = tested on: SNB-75 CNS
[15] = tested on: SR leukemia
[16] = tested on: T-47D breast
[17] = tested on: UO-31 renal
[18] = tested on: NCI-H23 lung
[19] = tested on: 786-0 renal
[20] = tested on: A549 NSCLC
[21] = tested on: ACHN renal
[22] = tested on: CAKI-1 renal
[23] = tested on: CCRF-CEM leukemia
[24] = tested on: COLO 205 colon
[25] = tested on: DU-145 prostate
[26] = tested on: HCT-15 colon
[27] = tested on: HT29 colon
[28] = tested on: KM12 colon
[29] = tested on: LOX IMVI melanoma
[30] = tested on: M14 melanoma
[31] = tested on: MCF7 breast
[32] = tested on: MDA-MB-435
[33] = tested on: MOLT-4 leukemia
[34] = tested on: NCI-H460 lung
[35] = tested on: NCI-H522 lung
[36] = tested on: OVCAR-3 ovarian
[37] = tested on: OVCAR-4 ovarian
[38] = tested on: OVCAR-8 ovarian
[39] = tested on: SF-268 CNS
[40] = tested on: SF-295 CNS
[41] = tested on: SF-539 CNS
[42] = tested on: SK-MEL-2 melanoma
[43] = tested on: SK-MEL-28 melanoma
[44] = tested on: SK-MEL-5 melanoma
[45] = tested on: SK-OV-3 ovarian
[46] = tested on: SNB-19 CNS
[47] = tested on: SW-620 colon
[48] = tested on: TK-10 renal
[49] = tested on: U251 CNS
[50] = tested on: UACC-257 melanoma
[51] = tested on: UACC-62 melanoma

With `Nc1nccc2c([N+](=O)[O-])cccc12` the GI50 [1] was 31.7 µg/mL, the GI50 [2] was 5.93 µg/mL and the TGI [2] was 48.8 µg/mL. For the same compound, the GI50 [3] was 84.3 µg/mL, the GI50 [4] was 78.3 µg/mL and the GI50 [5] was 61.5 µg/mL (≈ 325 µM). The GI50 [6] was 21.4 µg/mL, the GI50 [7] was 52 µg/mL and the GI50 [8] was 86.3 µg/mL. For the same compound, the GI50 [9] was 92 µg/mL, the GI50 [10] was 87.4 µg/mL and the GI50 [11] was 40.4 µg/mL. It also gave a GI50 [12] of 87.4 µg/mL, a GI50 [13] of 92.9 µg/mL and a GI50 [14] of 55.3 µg/mL. It also gave a GI50 [15] of 25.7 µg/mL, a GI50 [16] of 77.1 µg/mL and a GI50 [17] of 53.4 µg/mL.

In the case of `CC(C)Cc1ccc(C(C)C(=O)O)cc1` (centres undefined), the TGI [18] is reported as > 100 µM.

In the case of `COc1cc2c3c(n(CCCNCCCNCCCN)c(=O)c2cc1OC)-c1cc2c(cc1C3=O)OCO2`, the GI50 [19] is reported as 69.5 µM, the TGI [19] is reported as > 100 µM and the GI50 [1] is reported as > 100 µM. The TGI [1] was > 100 µM, the GI50 [20] was > 100 µM and the TGI [20] was > 100 µM. For the same compound, the GI50 [21] was 91.6 µM, the TGI [21] was > 100 µM and the GI50 [22] was 26.3 µM. For the same compound, the TGI [22] was > 100 µM, the GI50 [23] was 35.1 µM and the TGI [23] was > 100 µM. The GI50 [24] was 46.1 µM, the TGI [24] was > 100 µM and the GI50 [25] was > 100 µM. For the same compound, the TGI [25] was > 100 µM, the GI50 [2] was > 100 µM and the TGI [2] was > 100 µM. For the same compound, the GI50 [3] was 43 µM, the TGI [3] was > 100 µM and the GI50 [26] was 73.6 µM. The TGI [26] was > 100 µM, the GI50 [4] was > 100 µM and the TGI [4] was > 100 µM. The GI50 [6] was > 100 µM, the TGI [6] was > 100 µM and the GI50 [7] was > 100 µM. The TGI [7] was > 100 µM, the GI50 [27] was 48.6 µM and the TGI [27] was > 100 µM. The GI50 [8] was > 100 µM, the TGI [8] was > 100 µM and the GI50 [28] was > 100 µM. The TGI [28] was > 100 µM, the GI50 [29] was 32.4 µM and the TGI [29] was > 100 µM. For the same compound, the GI50 [30] was 52 µM, the TGI [30] was > 100 µM and the GI50 [31] was > 100 µM. For the same compound, the TGI [31] was > 100 µM, the GI50 [9] was > 100 µM and the TGI [9] was > 100 µM. For the same compound, the GI50 [32] was 68.4 µM, the TGI [32] was > 100 µM and the GI50 [33] was 21.2 µM. The TGI [33] was > 100 µM, the GI50 [10] was > 100 µM and the TGI [10] was > 100 µM. For the same compound, the GI50 [18] was 13.5 µM, the TGI [18] was > 100 µM and the GI50 [34] was > 100 µM. For the same compound, the TGI [34] was > 100 µM, the GI50 [35] was > 100 µM and the TGI [35] was > 100 µM. For the same compound, the GI50 [36] was 0.879 µM, the TGI [36] was 52.6 µM and the GI50 [37] was 6.63 µM. For the same compound, the TGI [37] was > 100 µM, the GI50 [38] was > 100 µM and the TGI [38] was > 100 µM. For the same compound, the GI50 [11] was > 100 µM, the TGI [11] was > 100 µM and the GI50 [12] was > 100 µM. For the same compound, the TGI [12] was > 100 µM, the GI50 [39] was > 100 µM and the TGI [39] was > 100 µM. The GI50 [40] was 40.6 µM, the TGI [40] was > 100 µM and the GI50 [41] was > 100 µM. The TGI [41] was > 100 µM, the GI50 [42] was > 100 µM and the TGI [42] was > 100 µM. The GI50 [43] was > 100 µM, the TGI [43] was > 100 µM and the GI50 [44] was > 100 µM. For the same compound, the TGI [44] was > 100 µM, the GI50 [45] was > 100 µM and the TGI [45] was > 100 µM. For the same compound, the GI50 [13] was 32.9 µM, the TGI [13] was > 100 µM and the GI50 [46] was > 100 µM. The TGI [46] was > 100 µM, the GI50 [14] was 12.8 µM and the TGI [14] was > 100 µM. The GI50 [15] was 13.6 µM, the TGI [15] was 89 µM and the GI50 [47] was 82.5 µM. For the same compound, the TGI [47] was > 100 µM, the GI50 [16] was > 100 µM and the TGI [16] was > 100 µM. The GI50 [48] was > 100 µM, the TGI [48] was > 100 µM and the GI50 [49] was 46.2 µM. The TGI [49] was > 100 µM, the GI50 [50] was > 100 µM and the TGI [50] was > 100 µM. For the same compound, the GI50 [51] was 44.1 µM, the TGI [51] was > 100 µM and the GI50 [17] was > 100 µM. For the same compound, the TGI [17] was > 100 µM.
